In ChEMBL document CHEMBL1201862, “PubChem BioAssay data set” (2004):
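Where inhibition never reached the appropriate level, the endpoint shown equals the highest concentration tested. Otherwise, values were interpolated linearly from a five-concentration, 48-hour dose response in 96-well plates. GI50 is the concentration that inhibits growth by half.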 Active and inactive are the calls of the source. Rule as the data show it: active = GI50 up to about 1.1 µM and inactive = higher.

Tests used:
Assay in all cases: NCI tumour cell line growth inhibition, 48 h
A549 = test system: A549
A498 = test system: A498
KM-20L2 = test system: KM-20L2
RPMI-8226 = test system: RPMI-8226
HOP-62 = test system: HOP-62
EKVX = test system: EKVX
SK-MEL-28 = test system: SK-MEL-28
HL-60 = test system: HL-60
SF-295 = test system: SF-295
CCRF-CEM = test system: CCRF-CEM
SF-268 = test system: SF-268
M14 = test system: M14
RXF 393 = test system: RXF 393
NCI-H460 = test system: NCI-H460
SK-MEL-5 = test system: SK-MEL-5

Measured: GI50

COc1ccc2c(c1OC)C1=C(C2=O)c2cc3c(cc2CCN1)OCO3
inactive: A549 47.2 µM | A498 55.8 µM | KM-20L2 17.9 µM | RPMI-8226 23.1 µM | HOP-62 48.6 µM | EKVX 46.9 µM | SK-MEL-28 42.7 µM | HL-60 19.2 µM | SF-295 33.5 µM | CCRF-CEM 26.1 µM | SF-268 41.9 µM | M14 37.3 µM | RXF 393 42.7 µM | NCI-H460 32.4 µM | SK-MEL-5 33.1 µM

O=C(Cc1ccccc1)NN1C(=O)C(Cl)C1c1cccc([N+](=O)[O-])c1 (centres undefined)
inactive: A549 > 100 µM | A498 > 100 µM | KM-20L2 > 83.4 µM | RPMI-8226 16.6 µM | HOP-62 > 100 µM | EKVX 34.8 µM | SK-MEL-28 > 92.9 µM | HL-60 10.4 µM | SF-295 > 100 µM | CCRF-CEM 2.33 µM | SF-268 44.7 µM | M14 46.7 µM | RXF 393 25.6 µM | NCI-H460 35.2 µM | SK-MEL-5 39.9 µM

CCOC(=O)C(C)(c1c(C)[nH]c2ccccc12)c1c(C)[nH]c2ccccc12
inactive: A549 19 µM | A498 17.8 µM | KM-20L2 16.4 µM | RPMI-8226 16.8 µM | HOP-62 18.9 µM | EKVX 25.5 µM | SK-MEL-28 15.3 µM | HL-60 12.1 µM | SF-295 14 µM | CCRF-CEM 17.9 µM | M14 14.4 µM | RXF 393 12.9 µM | NCI-H460 17.6 µM | SK-MEL-5 15.7 µM

Cc1cccc2c1NC(c1c(C)[nH]c3ccccc13)C2 (centres undefined)
inactive: A549 > 100 µM | A498 > 100 µM | KM-20L2 > 100 µM | RPMI-8226 > 100 µM | HOP-62 > 100 µM | EKVX 82.6 µM | SK-MEL-28 > 100 µM | HL-60 50.1 µM | SF-295 54.8 µM | CCRF-CEM 57.7 µM | SF-268 > 100 µM | M14 78.7 µM | RXF 393 56.4 µM | NCI-H460 > 100 µM | SK-MEL-5 > 100 µM

CC(C)(C)C1=CC(=N/N=c2\scc(-c3ccccc3)n2-c2ccccc2)C=C(C(C)(C)C)C1=O
inactive: A549 > 100 µM | A498 > 100 µM | KM-20L2 > 100 µM | RPMI-8226 > 100 µM | HOP-62 > 100 µM | EKVX > 100 µM | SK-MEL-28 > 100 µM | HL-60 > 100 µM | SF-295 > 100 µM | CCRF-CEM > 100 µM | SF-268 > 100 µM | M14 > 100 µM | RXF 393 > 100 µM | NCI-H460 > 100 µM | SK-MEL-5 > 100 µM

Cc1ccc(NC(=O)C2C(=O)N(c3ccc(C)c(C)c3)C(=O)/C2=N/O)cc1C (centres undefined)
inactive: A549 > 100 µM | A498 > 100 µM | KM-20L2 > 100 µM | RPMI-8226 > 100 µM | HOP-62 > 100 µM | EKVX > 100 µM | SK-MEL-28 > 100 µM | HL-60 > 100 µM | SF-295 > 100 µM | CCRF-CEM > 100 µM | SF-268 > 100 µM | M14 > 100 µM | RXF 393 > 100 µM | NCI-H460 44.7 µM | SK-MEL-5 > 100 µM

O=C(NNc1ccccc1)/C(=C/c1ccc2c(c1)OCO2)NC(=O)c1ccccc1
inactive: A549 > 100 µM | A498 > 100 µM | KM-20L2 > 100 µM | RPMI-8226 52.2 µM | HOP-62 > 100 µM | EKVX > 100 µM | SK-MEL-28 > 100 µM | HL-60 > 100 µM | SF-295 > 100 µM | CCRF-CEM 31 µM | SF-268 > 100 µM | M14 > 100 µM | RXF 393 > 100 µM | NCI-H460 > 100 µM | SK-MEL-5 > 100 µM
